Measured values as given in ChEMBL document CHEMBL1147949, “Potent anti-obese principle from Rosa canina: structural requirements and mode of action of trans-tiliroside” (2007).
Where “and” joins values, the source holds several entries; their conditions need not be identical. Identical values can stand only once. Calls of active or inactive are those of the source. No cut-off for these calls is given here.

Experiments:
[1] = system: Mus musculus; test: Effect on liver weight in ddY mouse at 10 mg/kg/day, po after 14 to 15 days; format: functional
[2] = system: Mus musculus; test: Reduction of epididymal fat in ddY mouse at 10 mg/kg/day, po after 14 to 15 days; format: functional
[3] = system: Mus musculus; test: Effect on free fatty acid in ddY mouse plasma at 10 mg/kg/day, po after 14 to 15 days; format: functional
[4] = system: Mus musculus; test: Effect on liver triglyceride in ddY mouse at 10 mg/kg/day, po after 14 to 15 days; format: functional
[5] = system: Mus musculus; test: Reduction of visceral fat in ddY mouse at 10 mg/kg/day, po after 14 to 15 days; format: functional
[6] = system: Mus musculus; test: Reduction of paranephric fat in ddY mouse at 10 mg/kg/day, po after 14 to 15 days; format: functional
[7] = system: Mus musculus; test: Effect on food intake in ddY mouse at 10 mg/kg/day, po after 14 to 15 days; format: functional
[8] = system: Mus musculus; test: Effect on total plasma cholesterol in ddY mouse at 10 mg/kg/day, po after 14 to 15 days; format: functional
[9] = system: Mus musculus; test: Effect on D-glucose level in ddY mouse plasma at 0.1 to 10 mg/kg/day for 15 days; format: functional
[10] = system: Mus musculus; test: Effect on plasma triglyceride in ddY mouse at 10 mg/kg/day, po after 14 to 15 days; format: functional
[11] = system: Mus musculus; test: Reduction of mesenteric fat in ddY mouse at 10 mg/kg/day, po after 14 to 15 days; format: functional
[12] = system: Mus musculus; test: Effect on total plasma cholesterol in ddY mouse at 0.1 mg/kg/day, po after 14 to 15 days; format: functional
[13] = system: Mus musculus; test: Effect on free fatty acid in ddY mouse plasma at 50 mg/kg/day, po after 14 to 15 days; format: functional
[14] = system: Mus musculus; test: Reduction of visceral fat in ddY mouse at 50 mg/kg/day, po after 14 to 15 days; format: functional
[15] = system: Mus musculus; test: Effect on plasma triglyceride in ddY mouse at 50 mg/kg/day, po after 14 to 15 days; format: functional
[16] = system: Mus musculus; test: Reduction of mesenteric fat in ddY mouse at 50 mg/kg/day, po after 14 to 15 days; format: functional
[17] = system: Mus musculus; test: Reduction of visceral fat in ddY mouse at 0.1 mg/kg/day, po after 14 to 15 days; format: functional
[18] = system: Liver; test: Increase in expression of PPAR alpha mRNA level in liver tissue of orally dosed ddY mouse, after 24 hrs; format: functional, organism-based
[19] = system: Mus musculus; test: Effect on food intake in ddY mouse at 50 mg/kg/day, po after 14 to 15 days; format: functional
[20] = system: Mus musculus; test: Effect on liver triglyceride in ddY mouse at 0.1 mg/kg/day, po after 14 to 15 days; format: functional
[21] = system: Mus musculus; test: Reduction of mesenteric fat in ddY mouse at 1 mg/kg/day, po after 14 to 15 days; format: functional
[22] = system: Mus musculus; test: Reduction of paranephric fat in ddY mouse at 0.1 mg/kg/day, po after 14 to 15 days; format: functional
[23] = system: Mus musculus; test: Reduction of epididymal fat in ddY mouse at 0.1 mg/kg/day, po after 14 to 15 days; format: functional
[24] = system: Mus musculus; test: Effect on liver weight in ddY mouse at 25 mg/kg/day, po after 14 to 15 days; format: functional
[25] = system: Mus musculus; test: Reduction of epididymal fat in ddY mouse at 1 mg/kg/day, po after 14 to 15 days; format: functional
[26] = system: Mus musculus; test: Reduction of paranephric fat in ddY mouse at 25 mg/kg/day, po after 14 to 15 days; format: functional
[27] = system: Mus musculus; test: Effect on total plasma cholesterol in ddY mouse at 50 mg/kg/day, po after 14 to 15 days; format: functional
[28] = system: Mus musculus; test: Effect on free fatty acid in ddY mouse plasma at 1 mg/kg/day, po after 14 to 15 days; format: functional
[29] = system: Mus musculus; test: Effect on plasma triglyceride in ddY mouse at 0.1 mg/kg/day, po after 14 to 15 days; format: functional
[30] = system: Mus musculus; test: Effect on food intake in ddY mouse at 25 mg/kg/day, po after 14 to 15 days; format: functional
[31] = system: Mus musculus; test: Reduction of paranephric fat in ddY mouse at 1 mg/kg/day, po after 14 to 15 days; format: functional
[32] = system: Mus musculus; test: Effect on liver triglyceride in ddY mouse at 50 mg/kg/day, po after 14 to 15 days; format: functional
[33] = system: Mus musculus; test: Reduction of paranephric fat in ddY mouse at 12.5 mg/kg/day, po after 14 to 15 days; format: functional
[34] = system: Mus musculus; test: Reduction of paranephric fat in ddY mouse at 50 mg/kg/day, po after 14 to 15 days; format: functional
[35] = system: Mus musculus; test: Reduction of epididymal fat in ddY mouse at 50 mg/kg/day, po after 14 to 15 days; format: functional
[36] = system: Mus musculus; test: Effect on total plasma cholesterol in ddY mouse at 1 mg/kg/day, po after 14 to 15 days; format: functional
[37] = system: Mus musculus; test: Reduction of mesenteric fat in ddY mouse at mg/kg/day, po after 14 to 15 days; format: functional
[38] = system: Mus musculus; test: Reduction of mesenteric fat in ddY mouse at 0.1 mg/kg/day, po after 14 to 15 days; format: functional
[39] = system: Mus musculus; test: Reduction of mesenteric fat in ddY mouse at 25 mg/kg/day, po after 14 to 15 days; format: functional
[40] = system: Mus musculus; test: Reduction of visceral fat in ddY mouse at 25 mg/kg/day, po after 14 to 15 days; format: functional
[41] = system: Mus musculus; test: Effect on liver weight in ddY mouse at 50 mg/kg/day, po after 14 to 15 days; format: functional
[42] = system: Mus musculus; test: Reduction of visceral fat in ddY mouse at 1 mg/kg/day, po after 14 to 15 days; format: functional
[43] = system: Mus musculus; test: Effect on food intake in ddY mouse at 0.1 mg/kg/day, po after 14 to 15 days; format: functional
[44] = system: Mus musculus; test: Effect on liver weight in ddY mouse at 0.1 mg/kg/day, po after 14 to 15 days; format: functional
[45] = system: Mus musculus; test: Effect on liver weight in ddY mouse at 1 mg/kg/day, po after 14 to 15 days; format: functional
[46] = system: Mus musculus; test: Effect on food intake in ddY mouse at 12.5 mg/kg/day, po after 14 to 15 days; format: functional
[47] = system: Mus musculus; test: Effect on plasma triglyceride in ddY mouse at 1 mg/kg/day, po after 14 to 15 days; format: functional
[48] = system: Mus musculus; test: Effect on plasma triglyceride in ddY mouse at 12.5 mg/kg/day, po after 14 to 15 days; format: functional
[49] = system: Mus musculus; test: Effect on liver triglyceride in ddY mouse at 12.5 mg/kg/day, po after 14 to 15 days; format: functional
[50] = system: Mus musculus; test: Reduction of epididymal fat in ddY mouse at 12.5 mg/kg/day, po after 14 to 15 days; format: functional
[51] = system: Mus musculus; test: Effect on liver weight in ddY mouse at 12.5 mg/kg/day, po after 14 to 15 days; format: functional
[52] = system: Mus musculus; test: Effect on liver triglyceride in ddY mouse at 1 mg/kg/day, po after 14 to 15 days; format: functional
[53] = system: Mus musculus; test: Effect on free fatty acid in ddY mouse plasma at 0.1 mg/kg/day, po after 14 to 15 days; format: functional
[54] = system: Mus musculus; test: Effect on food intake in ddY mouse at 1 mg/kg/day, po after 14 to 15 days; format: functional
[55] = system: Mus musculus; test: Effect on total plasma cholesterol in ddY mouse at 12.5 mg/kg/day, po after 14 to 15 days; format: functional
[56] = system: Mus musculus; test: Effect on free fatty acid in ddY mouse plasma at 12.5 mg/kg/day, po after 14 to 15 days; format: functional
[57] = system: Mus musculus; test: Reduction of epididymal fat in ddY mouse at 25 mg/kg/day, po after 14 to 15 days; format: functional
[58] = system: Mus musculus; test: Reduction of visceral fat in ddY mouse at 12.5 mg/kg/day, po after 14 to 15 days; format: functional

O=c1c(O[C@@H]2O[C@H](CO)[C@@H](O)[C@H](O)[C@H]2O)c(-c2ccc(O)cc2)oc2cc(O)cc(O)c12 [ASTRAGALIN]
Activity [1]: 1640 mg
Activity [2]: 797 mg
Activity [3]: 1.7 mEq/L
Activity [4]: 64.8 mg/g
Activity [5]: 1770 mg
Activity [6]: 293 mg
Activity [7]: 4.34 g/day
Activity [8]: 119 mg/dL
Activity [9]: 99 mg/dL
Activity [10]: 113 mg/dL
Activity [11]: 680 mg

O=C(O)/C=C/c1ccc(O)cc1 [COUMARIC ACID]
Activity [1]: 1640 mg
Activity [2]: 847 mg
Activity [3]: 1.67 mEq/L
Activity [4]: 58.2 mg/g
Activity [5]: 1920 mg
Activity [6]: 307 mg
Activity [7]: 4.3 g/day
Activity [8]: 143 mg/dL
Activity [9]: 106 mg/dL
Activity [10]: 162 mg/dL
Activity [11]: 761 mg

O=c1c(O)c(-c2ccc(O)cc2)oc2cc(O)cc(O)c12 [KAEMPFEROL]
Activity [1]: 1520 mg
Activity [2]: 896 mg
Activity [3]: 1.72 mEq/L
Activity [4]: 60.3 mg/g
Activity [5]: 2120 mg
Activity [6]: 418 mg
Activity [7]: 4.2 g/day
Activity [8]: 149 mg/dL
Activity [9]: 110 mg/dL
Activity [10]: 139 mg/dL
Activity [11]: 804 mg

O=C(/C=C/c1ccc(O)cc1)OC[C@H]1O[C@@H](Oc2c(-c3ccc(O)cc3)oc3cc(O)cc(O)c3c2=O)[C@H](O)[C@@H](O)[C@@H]1O [TILIROSIDE]
Activity [12]: 108 mg/dL
Activity [1]: 1500 mg
Activity [13]: 1.44 mEq/L
Activity [14]: 1950 mg
Activity [15]: 161 mg/dL
Activity [16]: 812 mg
Activity [17]: 1660 mg
Activity [2]: 350 mg and 626 mg
Activity [18]: Active
Activity [19]: 5 g/day
Activity [20]: 46.7 mg/g
Activity [21]: 509 mg
Activity [22]: 284 mg
Activity [23]: 716 mg
Activity [24]: 1590 mg and 1680 mg
Activity [5]: 998 mg and 1450 mg
Activity [25]: 407 mg
Activity [26]: 394 mg and 194 mg
Activity [6]: 132 mg and 266 mg
Activity [27]: 144 mg/dL
Activity [28]: 1.01 mEq/L
Activity [29]: 119 mg/dL
Activity [30]: 5 g/day and 5.4 g/day
Activity [31]: 141 mg
Activity [32]: 63.9 mg/g
Activity [33]: 350 mg
Activity [34]: 330 mg
Activity [35]: 811 mg
Activity [36]: 102 mg/dL
Activity [37]: 745 mg
Activity [7]: 5.3 g/day and 4.22 g/day
Activity [38]: 662 mg
Activity [39]: 738 mg and 508 mg
Activity [40]: 2050 mg and 1260 mg
Activity [41]: 1560 mg
Activity [42]: 1060 mg
Activity [43]: 4.7 g/day
Activity [44]: 1490 mg
Activity [45]: 1390 mg
Activity [46]: 5.7 g/day
Activity [47]: 95 mg/dL
Activity [48]: 169 mg/dL
Activity [49]: 60.4 mg/g
Activity [50]: 1140 mg
Activity [51]: 1590 mg
Activity [52]: 30.8 mg/g
Activity [53]: 1.17 mEq/L
Activity [9]: 93 mg/dL
Activity [54]: 5 g/day
Activity [55]: 156 mg/dL
Activity [56]: 1.5 mEq/L
Activity [57]: 918 mg and 558 mg
Activity [58]: 2240 mg
Activity [11]: 516 mg and 561 mg
